Measurements from publication PMC7576608, “Mechanisms of telomerase inhibition by oxidized and therapeutic dNTPs” (Nature Communications, 2020).

Experiments:
telomerase [1] = molecular target: T1, telomerase (Homo sapiens, UniProt O14746); assay: Telomerase extension of 32P-end labeled primers with a single dNTP (percent primer extension); format: biochemical; set-up: made in house; anti-FLAG immunopurification, eluted with 3xFLAG peptide; conditions: for Percent Primer Extension: 50 μM single dNTP
Description: A chain terminating mechanism of inhibition requires that the enzyme adds the modified dNTP to a growing chain, which then blocks further synthesis. […] To test whether telomerase can incorporate other modified dNTPs, and whether the incorporation is chain terminating and/or mutagenic, we conducted direct extension assays in which we radiolabeled the primer and added increasing concentrations (5, 50, and 500 μM) of a single dNTP (Supplementary Figs. 3, 5, 6, and 7). Since modified dNTPs may prefer mispairing, we tested various primers in which the first template base was either rA3, rC1, or rU5 (primer 1, primer 2, and primer 3, respectively), and compared the percent primer extension for each dNTP at the middle 50 μM concentration (Fig. 3). Primers 1 and 2 initiate synthesis at consecutive rA3rA4 or rC1rC2 template bases, respectively, so we could examine both incorporation and extension to the next base. However, the telomerase template lacks tandem rU residues.
Fig. 3 Telomerase insertion of modified dNTPs. Telomerase reactions were conducted with 5 nM ^32P-end labeled primer a Primer 1 (TTAGGG)3, b Primer 2 (GGTTAG)3, or c Primer 3 (AGGGTT)3. Reactions contained cellular-concentration dNTPs (lane 1) or 50 μM of indicated natural dNTP (blue, lanes 2–5), oxidized dNTP (red, lanes 6–8), or therapeutic dNTP (green, lanes 9–11). Products were separated on denaturing gels. […] Letters on the right indicate the template base; P indicates unextended 18-mer primer. Graphs represent the percent of total primers extended. Images are representative of, and data are shown as mean ± s.d. from, three independent experiments. Source data are provided as a Source Data file.
(§1) An equal volume of loading buffer (94% formamide, 0.1× TBE, 0.1% bromophenol blue, 0.1% xylene cyanol) was added to the reaction eluent. The samples were heat denatured for 10 min at 100 °C and loaded onto a 14% denaturing acrylamide gel (7 M urea, 1× TBE) and electrophoresed for 90 min at constant 38 W. Samples were imaged using a Typhoon phosphorimager (GE Healthcare). Percent primer extension was calculated with ImageQuant TL 8.2 by measuring the intensity of each product band and dividing by the total radioactivity in the lane or total products, as indicated in the figure legends.
Telomerase reactions were conducted with 5 nM 32P-end labeled primer (a) Primer 1 (TTAGGG)3, (b) Primer 2 (GGTTAG)3, or (c and d) Primer 3 […]
(d) reactions contained 3 µg/µl RNase A. Products were separated on denaturing gels. Letters on the right indicate the template base; P indicates unextended 18-mer primer. Graphs represent the percent of total primers extended for the reactions in panels a – c from one experiment. Panel d is a representative image from three independent experiments. Source data are provided as a Source Data file. […]
Supplementary Fig 4. Time course reactions with telomerase or pol β. (a, b) Telomerase reactions were conducted with 5 nM 32P-end labeled primer (a) Primer 4 (GTTAGG)3 or (b) Primer 2 (GGTTAG)3.
Products were separated on denaturing gels. Letters on the right indicate the template base; P indicates […]
unextended 18-mer primer. […]

telomerase [2] = molecular target: T1, telomerase; assay: Telomerase extension after insertion of modified dNTP (percent of product terminated at each template position); format: biochemical; set-up: made in house; anti-FLAG immunopurification, eluted with 3xFLAG peptide; conditions: for Percent of Total Product: Fig 4a, Primer 3, 50 μM each dTTP, dGTP and dATP or 2-OH-dATP, Mean
Description: Direct telomerase assays were conducted with 5 nM ^32P-end labeled primer a and d Primer 3 (AGGGTT)3, b Primer 1 (TTAGGG)3, or c Primer 2 […]. […] Products were separated on denaturing gels. Letters on the y-axis of the graph indicate the template base; P indicates unextended 18-mer primer. Graphs represent percent of product terminated at each template position as a function of total products. Images are representative of, and data are the mean ± s.d. from, three independent experiments. Source data are provided as a Source Date file.
as §1, with “The reactions were started by the addition of 3 μl of immunopurified telomerase eluent, incubated at 37 °C for 1 h, then terminated with 2 μl of […] and heat inactivated at 65 °C for 20 min. An” for “An”

[3] = Primer 1 (TTAGGG)3, first template base rA3, Mean of three experiments
[4] = Primer 2 (GGTTAG)3, first template base rC1, Mean of three experiments
[5] = Primer 2 (GGTTAG)3, first template base rC1, single experiments n1-n3
[6] = Primer 3 (AGGGTT)3, first template base rU5, Mean of three experiments
[7] = Primer 3 (AGGGTT)3, first template base rU5, single experiments n1-n3
[8] = end-labeled primers, single dNTP

T1 sequence (O14746 whole entry): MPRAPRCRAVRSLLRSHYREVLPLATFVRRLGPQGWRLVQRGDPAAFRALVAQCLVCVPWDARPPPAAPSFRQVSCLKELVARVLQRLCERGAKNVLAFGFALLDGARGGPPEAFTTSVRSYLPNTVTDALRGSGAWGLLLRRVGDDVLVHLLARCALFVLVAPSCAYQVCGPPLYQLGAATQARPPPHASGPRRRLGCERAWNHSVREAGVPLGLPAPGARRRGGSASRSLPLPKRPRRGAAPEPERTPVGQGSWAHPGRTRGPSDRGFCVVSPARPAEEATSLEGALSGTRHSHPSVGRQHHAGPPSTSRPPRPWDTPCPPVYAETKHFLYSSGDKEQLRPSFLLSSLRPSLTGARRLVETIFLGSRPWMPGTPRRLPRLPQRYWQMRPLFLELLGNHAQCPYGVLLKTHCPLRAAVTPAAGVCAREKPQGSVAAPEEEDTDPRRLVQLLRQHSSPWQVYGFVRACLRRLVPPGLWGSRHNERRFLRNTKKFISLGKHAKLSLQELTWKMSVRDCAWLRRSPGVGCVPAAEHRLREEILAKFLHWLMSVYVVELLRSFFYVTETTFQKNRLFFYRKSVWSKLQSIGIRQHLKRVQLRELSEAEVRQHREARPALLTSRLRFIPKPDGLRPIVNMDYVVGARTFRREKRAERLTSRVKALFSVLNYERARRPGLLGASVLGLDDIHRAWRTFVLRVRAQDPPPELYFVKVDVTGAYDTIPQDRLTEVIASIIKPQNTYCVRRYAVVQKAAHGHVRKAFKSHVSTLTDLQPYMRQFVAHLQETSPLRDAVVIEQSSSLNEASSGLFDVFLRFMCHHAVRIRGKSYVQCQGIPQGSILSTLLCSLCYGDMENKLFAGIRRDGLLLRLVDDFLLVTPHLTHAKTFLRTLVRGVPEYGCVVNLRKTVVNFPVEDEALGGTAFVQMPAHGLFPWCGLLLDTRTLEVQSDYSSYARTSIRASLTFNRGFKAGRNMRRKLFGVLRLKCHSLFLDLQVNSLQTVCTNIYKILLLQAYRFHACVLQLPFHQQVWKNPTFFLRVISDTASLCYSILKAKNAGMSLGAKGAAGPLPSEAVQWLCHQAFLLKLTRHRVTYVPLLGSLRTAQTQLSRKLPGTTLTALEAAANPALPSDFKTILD

SMILES | Percent Primer Extension (telomerase [1]; [3]) | % Primer Extension (telomerase [1]; Primer 1, 5µM dNTP) | % Primer Extension (telomerase [1]; Primer 1, 50µM dNTP) | % Primer Extension (telomerase [1]; Primer 1, 500µM dNTP) | Percent Primer Extension (telomerase [1]; [4]) | % Primer Extension (telomerase [1]; Primer 2, 5µM dNTP) | % Primer Extension (telomerase [1]; Primer 2, 50µM dNTP) | % Primer Extension (telomerase [1]; Primer 2, 500µM dNTP) | % Primer Extension (telomerase [1]; Primer 3, 5µM dNTP) | % Primer Extension (telomerase [1]; Primer 3, 50µM dNTP) | % Primer Extension (telomerase [1]; Primer 3, 500µM dNTP) | Percent Primer Extension (telomerase [1]; [5]) | Percent Primer Extension (telomerase [1]; [6]) | Percent Primer Extension (telomerase [1]; [7]) | Chain termination after telomerase insertion (in words) (telomerase [1]; [8]) | other results
Nc1nc(O)nc2c1ncn2C1CC(O)C(COP(=O)(O)OP(=O)(O)OP(=O)(O)O)O1 (stereo not shown) [2-OH-dATP] | 2.82% | 0.00% | 1.98% | 6.01% | 1.32% | 0.00% | 1.93% | 3.14% | 8.27% | 15.94% | 46.35% | – | – | – | – | Fold less product than with dATP (telomerase [1]; Primer 3, insertion opposite rU5, 50 μM): 2 fold; Mutagenic insertion by telomerase (in words) (telomerase [1]; misinsertion opposite rA3 and rC1): not mutagenic; Extension after insertion of the modified dNTP (in words) (telomerase [2]; 50 μM each dNTP, analog substituted for natural dNTP): translocation to add the next repeat is greatly compromised; Percent of Total Product (telomerase [2]; terminated at rA3): 5.06%; Percent of Total Product (telomerase [2]; terminated at rA4): 1.19%; Percent of Total Product (telomerase [2]; terminated at rC1): 1.62%; Percent of Total Product (telomerase [2]; terminated at rC2): 10.51%; Percent of Total Product (telomerase [2]; terminated at rC6): 68.71%; Percent of Total Product (telomerase [2]; terminated at rU5 (first)): 12.42%; Percent of Total Product (telomerase [2]; terminated at rU5 (second, after translocation)): 0.49%
Nc1ncnc2c1[nH]c(=O)n2C1CC(O)C(COP(=O)(O)OP(=O)(O)OP(=O)(O)O)O1 (stereo not shown) [8-oxo-dATP] | 0.53% | 0.00% | 0.00% | 1.79% | 0.00% | 0.00% | 0.00% | 0.00% | 0.00% | 0.00% | 0.00% | 0.00% | 0.00% | 0.00% | – | Quality as telomerase substrate (in words) (telomerase [1]; [8]): very poor substrate for telomerase
Nc1nc2c([nH]c(=O)n2C2CC(O)C(COP(=O)(O)OP(=O)(O)OP(=O)(O)O)O2)c(=O)[nH]1 (stereo not shown) [8-oxo-dGTP] | 10.80% | 5.20% | 7.44% | 8.42% | 0.96% | 0.88% | 1.37% | 6.18% | 0.00% | 0.00% | 0.00% | – | 0.00% | 0.00% | chain-terminating ability | –
Cc1cn([C@H]2C[C@H](N=[N+]=[N-])[C@@H](CO[P@](=O)(O)O[P@](=O)(O)OP(=O)(O)O)O2)c(=O)[nH]c1=O [AZT-TP] | – | – | – | – | 0.00% | – | – | – | – | – | – | 0.00% | 0.00% | 0.00% | genuine telomerase chain terminators | –
Cc1cn(C2CC(O)C(COP(=O)(O)OP(=O)(O)OP(=O)(O)O)O2)c(=O)[nH]c1=O (stereo not shown) [dTTP] | – | 30.00% | 36.00% | 45.00% | 0.00% | 0.00% | 0.00% | 0.00% | 3.79% | 9.26% | 17.69% | 0.00% | – | – | – | –
O=c1[nH]cnc2c1ncn2C1CCC(COP(=O)(O)OP(=O)(O)OP(=O)(O)O)O1 (stereo not shown) [ddITP] | 1.59% | 3.46% | 4.29% | 6.73% | – | 0% | 4.27% | 5.45% | 0% | 0% | 0% | – | 0.00% | 0.00% | genuine telomerase chain terminators | –
